Experimental data published in ChEMBL document CHEMBL4507278 (2021).

What was measured:
[1] = target: ALK tyrosine kinase receptor (Homo sapiens) (UniProt Q9UM73); details: Compound concentration 1000.0 nM
[2] = target: 5'-AMP-activated protein kinase catalytic subunit alpha-2 (Homo sapiens) (UniProt P54646); details: Compound concentration 1000.0 nM
[3] = target: Serine/threonine-protein kinase BRSK1 (Homo sapiens) (UniProt Q8TDC3); details: Compound concentration 1000.0 nM
[4] = target: Cyclin-dependent kinase 7 (Homo sapiens) (UniProt P50613); details: Compound concentration 1000.0 nM
[5] = target: Cyclin-dependent kinase 9 (Homo sapiens) (UniProt P50750); details: Compound concentration 1000.0 nM
Chain of Cyclin-dependent kinase 9 (Homo sapiens) (P50750 whole entry): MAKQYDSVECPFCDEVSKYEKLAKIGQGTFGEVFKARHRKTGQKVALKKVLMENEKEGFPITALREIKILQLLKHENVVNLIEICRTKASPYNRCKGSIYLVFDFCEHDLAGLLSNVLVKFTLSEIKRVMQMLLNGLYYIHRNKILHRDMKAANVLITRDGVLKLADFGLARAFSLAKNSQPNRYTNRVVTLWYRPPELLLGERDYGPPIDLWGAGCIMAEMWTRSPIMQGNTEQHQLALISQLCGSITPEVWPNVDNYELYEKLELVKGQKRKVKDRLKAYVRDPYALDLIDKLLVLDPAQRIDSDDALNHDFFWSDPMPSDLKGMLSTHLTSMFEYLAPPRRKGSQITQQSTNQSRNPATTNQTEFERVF

[6] = target: Cyclin-dependent kinase-like 5 (Homo sapiens) (UniProt O76039); details: Compound concentration 1000.0 nM
[7] = target: Dual specificity protein kinase CLK4 (Homo sapiens) (UniProt Q9HAZ1); details: Compound concentration 1000.0 nM
[8] = target: Casein kinase I isoform epsilon (Homo sapiens) (UniProt P49674); details: Compound concentration 1000.0 nM
[9] = target: Megakaryocyte-associated tyrosine-protein kinase (Homo sapiens) (UniProt P42679); details: Compound concentration 1000.0 nM
[10] = target: Mitogen-activated protein kinase 3 (Homo sapiens) (UniProt P27361); details: Compound concentration 1000.0 nM
[11] = target: Homeodomain-interacting protein kinase 4 (Homo sapiens) (UniProt Q8NE63); details: Compound concentration 1000.0 nM
[12] = target: Serine/threonine-protein kinase MAK (Homo sapiens) (UniProt P20794); details: Compound concentration 1000.0 nM
[13] = target: Mitogen-activated protein kinase kinase kinase 1 (Homo sapiens) (UniProt Q13233); details: Compound concentration 1000.0 nM
[14] = target: Dual specificity mitogen-activated protein kinase kinase 5 (Homo sapiens) (UniProt Q13163); details: Compound concentration 1000.0 nM
[15] = target: Tyrosine-protein kinase Mer (Homo sapiens) (UniProt Q12866); details: Compound concentration 1000.0 nM
Chain of Tyrosine-protein kinase Mer (Homo sapiens) (Q12866 whole entry): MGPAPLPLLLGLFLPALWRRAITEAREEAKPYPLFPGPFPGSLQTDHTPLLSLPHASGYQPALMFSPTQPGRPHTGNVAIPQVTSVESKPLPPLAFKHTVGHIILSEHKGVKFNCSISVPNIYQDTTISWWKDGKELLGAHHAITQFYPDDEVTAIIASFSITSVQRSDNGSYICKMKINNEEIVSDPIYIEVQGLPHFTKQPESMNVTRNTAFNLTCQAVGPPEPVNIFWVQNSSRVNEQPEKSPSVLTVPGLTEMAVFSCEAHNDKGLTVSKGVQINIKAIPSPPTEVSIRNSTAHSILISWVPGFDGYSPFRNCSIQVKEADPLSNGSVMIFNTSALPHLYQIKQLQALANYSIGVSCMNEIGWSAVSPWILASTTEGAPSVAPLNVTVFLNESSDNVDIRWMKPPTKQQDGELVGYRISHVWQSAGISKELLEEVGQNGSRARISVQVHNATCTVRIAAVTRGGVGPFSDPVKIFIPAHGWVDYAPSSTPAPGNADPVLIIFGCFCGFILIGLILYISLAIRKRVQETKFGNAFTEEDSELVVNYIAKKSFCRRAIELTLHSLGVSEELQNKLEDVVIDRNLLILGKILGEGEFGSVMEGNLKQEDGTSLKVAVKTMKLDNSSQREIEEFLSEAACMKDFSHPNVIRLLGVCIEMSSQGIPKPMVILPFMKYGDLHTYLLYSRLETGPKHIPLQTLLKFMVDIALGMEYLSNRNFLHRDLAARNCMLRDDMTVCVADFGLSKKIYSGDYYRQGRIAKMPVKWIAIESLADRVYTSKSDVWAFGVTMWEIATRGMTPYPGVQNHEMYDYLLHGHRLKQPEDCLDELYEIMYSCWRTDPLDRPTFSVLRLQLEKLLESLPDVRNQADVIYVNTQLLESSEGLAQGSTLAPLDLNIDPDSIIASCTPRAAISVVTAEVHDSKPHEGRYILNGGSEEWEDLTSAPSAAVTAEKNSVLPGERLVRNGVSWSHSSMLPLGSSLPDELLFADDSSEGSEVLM

[16] = target: Serine/threonine-protein kinase MRCK alpha (Homo sapiens) (UniProt Q5VT25); details: Compound concentration 1000.0 nM
[17] = target: Macrophage-stimulating protein receptor (Homo sapiens) (UniProt Q04912); details: Compound concentration 1000.0 nM
[18] = target: Myosin light chain kinase family member 4 (Homo sapiens) (UniProt Q86YV6); details: Compound concentration 1000.0 nM
Chain of Myosin light chain kinase family member 4 (Homo sapiens) (Q86YV6 whole entry): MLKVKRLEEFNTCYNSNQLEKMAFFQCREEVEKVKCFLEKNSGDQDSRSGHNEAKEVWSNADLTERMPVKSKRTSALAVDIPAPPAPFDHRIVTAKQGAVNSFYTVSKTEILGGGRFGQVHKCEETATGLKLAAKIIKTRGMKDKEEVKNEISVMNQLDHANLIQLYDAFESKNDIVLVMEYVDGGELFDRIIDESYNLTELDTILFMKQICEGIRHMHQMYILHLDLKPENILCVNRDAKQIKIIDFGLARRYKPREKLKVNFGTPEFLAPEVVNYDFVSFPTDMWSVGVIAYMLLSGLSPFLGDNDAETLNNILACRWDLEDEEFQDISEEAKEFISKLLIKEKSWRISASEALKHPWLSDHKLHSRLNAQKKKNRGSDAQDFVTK

[19] = target: Serine/threonine-protein kinase Nek1 (Homo sapiens) (UniProt Q96PY6); details: Compound concentration 1000.0 nM
Chain of Serine/threonine-protein kinase Nek1 (Homo sapiens) (Q96PY6 whole entry): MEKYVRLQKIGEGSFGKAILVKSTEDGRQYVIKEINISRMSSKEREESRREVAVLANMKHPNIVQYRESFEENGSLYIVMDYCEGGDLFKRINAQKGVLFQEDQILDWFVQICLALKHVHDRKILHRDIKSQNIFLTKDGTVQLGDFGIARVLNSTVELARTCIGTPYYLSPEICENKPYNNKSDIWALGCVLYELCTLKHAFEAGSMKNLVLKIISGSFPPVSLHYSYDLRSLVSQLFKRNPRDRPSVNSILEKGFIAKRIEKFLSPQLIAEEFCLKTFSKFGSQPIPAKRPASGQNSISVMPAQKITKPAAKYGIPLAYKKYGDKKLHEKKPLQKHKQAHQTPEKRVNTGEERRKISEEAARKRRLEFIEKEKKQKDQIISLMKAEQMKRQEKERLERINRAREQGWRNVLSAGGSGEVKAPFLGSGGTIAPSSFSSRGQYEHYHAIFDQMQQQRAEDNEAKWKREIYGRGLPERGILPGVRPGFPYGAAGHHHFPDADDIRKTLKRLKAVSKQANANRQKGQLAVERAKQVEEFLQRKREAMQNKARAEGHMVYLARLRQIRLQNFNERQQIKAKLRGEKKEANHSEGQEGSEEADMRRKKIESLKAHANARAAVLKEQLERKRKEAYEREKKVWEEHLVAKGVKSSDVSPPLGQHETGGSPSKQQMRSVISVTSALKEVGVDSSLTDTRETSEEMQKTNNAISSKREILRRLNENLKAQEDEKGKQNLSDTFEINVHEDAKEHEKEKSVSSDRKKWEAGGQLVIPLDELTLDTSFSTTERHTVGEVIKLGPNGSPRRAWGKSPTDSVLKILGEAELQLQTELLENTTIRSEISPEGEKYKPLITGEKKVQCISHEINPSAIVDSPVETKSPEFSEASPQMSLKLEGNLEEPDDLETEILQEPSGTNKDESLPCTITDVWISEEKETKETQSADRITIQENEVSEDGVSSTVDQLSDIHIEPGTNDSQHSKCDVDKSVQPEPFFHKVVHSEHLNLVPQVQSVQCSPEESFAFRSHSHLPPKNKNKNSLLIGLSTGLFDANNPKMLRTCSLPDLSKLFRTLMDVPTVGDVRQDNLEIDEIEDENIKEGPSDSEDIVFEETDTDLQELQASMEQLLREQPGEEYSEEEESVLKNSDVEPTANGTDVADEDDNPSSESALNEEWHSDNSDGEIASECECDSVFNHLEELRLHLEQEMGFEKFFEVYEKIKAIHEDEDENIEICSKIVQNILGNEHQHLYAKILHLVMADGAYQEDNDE

[20] = target: Serine/threonine-protein kinase Nek5 (Homo sapiens) (UniProt Q6P3R8); details: Compound concentration 1000.0 nM
[21] = target: Mitogen-activated protein kinase kinase kinase 14 (Homo sapiens) (UniProt Q99558); details: Compound concentration 1000.0 nM
[22] = target: Serine/threonine-protein kinase NIM1 (Homo sapiens) (UniProt Q8IY84); details: Compound concentration 1000.0 nM
Chain of Serine/threonine-protein kinase NIM1 (Homo sapiens) (Q8IY84 whole entry): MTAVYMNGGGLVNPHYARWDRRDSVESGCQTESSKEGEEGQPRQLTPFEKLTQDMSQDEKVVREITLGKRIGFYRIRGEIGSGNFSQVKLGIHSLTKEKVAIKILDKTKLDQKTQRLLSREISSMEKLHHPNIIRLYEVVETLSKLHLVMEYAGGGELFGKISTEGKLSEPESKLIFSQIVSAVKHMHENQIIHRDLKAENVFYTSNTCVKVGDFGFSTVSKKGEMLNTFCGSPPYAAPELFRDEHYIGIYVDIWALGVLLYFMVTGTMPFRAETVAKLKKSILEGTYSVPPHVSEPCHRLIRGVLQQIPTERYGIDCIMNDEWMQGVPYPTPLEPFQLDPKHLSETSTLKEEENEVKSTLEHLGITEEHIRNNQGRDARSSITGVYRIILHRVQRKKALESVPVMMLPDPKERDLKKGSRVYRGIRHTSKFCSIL

[23] = target: Platelet-derived growth factor receptor alpha (Homo sapiens) (UniProt P16234); details: Compound concentration 1000.0 nM
[24] = target: Calcium-dependent protein kinase 1 (Plasmodium falciparum) (UniProt P62344); details: Compound concentration 1000.0 nM
[25] = tested on: Phosphatidylinositol 4,5-bisphosphate 3-kinase catalytic subunit alpha isoform (Homo sapiens), P42336 [E545K]; details: Compound concentration 1000.0 nM
[26] = target: RAF proto-oncogene serine/threonine-protein kinase (Homo sapiens) (UniProt P04049); details: Compound concentration 1000.0 nM
[27] = target: Ribosomal protein S6 kinase alpha-4 (Homo sapiens) (UniProt O75676); details: Compound concentration 1000.0 nM
[28] = target: Ribosomal protein S6 kinase alpha-3 (Homo sapiens) (UniProt P51812); details: Compound concentration 1000.0 nM
[29] = target: Ribosomal protein S6 kinase alpha-6 (Homo sapiens) (UniProt Q9UK32); details: Compound concentration 1000.0 nM
[30] = target: Serine/threonine-protein kinase 16 (Homo sapiens) (UniProt O75716); details: Compound concentration 1000.0 nM
[31] = target: Mitogen-activated protein kinase kinase kinase 7 (Homo sapiens) (UniProt O43318); details: Compound concentration 1000.0 nM
[32] = target: Serine/threonine-protein kinase TAO2 (Homo sapiens) (UniProt Q9UL54); details: Compound concentration 1000.0 nM
[33] = target: TGF-beta receptor type-2 (Homo sapiens) (UniProt P37173); details: Compound concentration 1000.0 nM
[34] = target: Phosphatidylinositol 3-kinase catalytic subunit type 3 (Homo sapiens) (UniProt Q8NEB9); details: Compound concentration 1000.0 nM
[35] = target: Tyrosine-protein kinase Yes (Homo sapiens) (UniProt P07947); details: Compound concentration 1000.0 nM
[36] = target: Serine/threonine-protein kinase 25 (Homo sapiens) (UniProt O00506); details: Compound concentration 1000.0 nM
[37] = target: T1, Alpha-1D adrenergic receptor (Homo sapiens) (UniProt P25100); details: Compound concentration 10.0 uM
T1 sequence (whole entry): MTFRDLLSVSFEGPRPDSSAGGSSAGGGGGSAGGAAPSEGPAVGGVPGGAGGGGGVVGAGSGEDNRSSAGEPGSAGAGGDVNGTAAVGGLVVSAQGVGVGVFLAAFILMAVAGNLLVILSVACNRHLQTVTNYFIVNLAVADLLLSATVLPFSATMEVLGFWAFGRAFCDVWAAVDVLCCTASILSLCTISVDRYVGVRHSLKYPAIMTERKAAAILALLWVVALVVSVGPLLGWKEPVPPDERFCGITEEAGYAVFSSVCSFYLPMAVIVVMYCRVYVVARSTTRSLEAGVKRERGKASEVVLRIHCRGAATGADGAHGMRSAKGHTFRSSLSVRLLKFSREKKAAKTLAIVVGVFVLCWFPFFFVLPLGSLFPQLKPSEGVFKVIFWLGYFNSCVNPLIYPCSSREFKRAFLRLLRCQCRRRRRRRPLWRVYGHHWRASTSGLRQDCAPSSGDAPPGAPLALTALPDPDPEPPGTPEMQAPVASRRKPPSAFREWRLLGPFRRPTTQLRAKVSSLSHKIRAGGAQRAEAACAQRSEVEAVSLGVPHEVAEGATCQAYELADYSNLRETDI

Chain of ALK tyrosine kinase receptor (Homo sapiens) (Q9UM73 19-1620 limits assumed): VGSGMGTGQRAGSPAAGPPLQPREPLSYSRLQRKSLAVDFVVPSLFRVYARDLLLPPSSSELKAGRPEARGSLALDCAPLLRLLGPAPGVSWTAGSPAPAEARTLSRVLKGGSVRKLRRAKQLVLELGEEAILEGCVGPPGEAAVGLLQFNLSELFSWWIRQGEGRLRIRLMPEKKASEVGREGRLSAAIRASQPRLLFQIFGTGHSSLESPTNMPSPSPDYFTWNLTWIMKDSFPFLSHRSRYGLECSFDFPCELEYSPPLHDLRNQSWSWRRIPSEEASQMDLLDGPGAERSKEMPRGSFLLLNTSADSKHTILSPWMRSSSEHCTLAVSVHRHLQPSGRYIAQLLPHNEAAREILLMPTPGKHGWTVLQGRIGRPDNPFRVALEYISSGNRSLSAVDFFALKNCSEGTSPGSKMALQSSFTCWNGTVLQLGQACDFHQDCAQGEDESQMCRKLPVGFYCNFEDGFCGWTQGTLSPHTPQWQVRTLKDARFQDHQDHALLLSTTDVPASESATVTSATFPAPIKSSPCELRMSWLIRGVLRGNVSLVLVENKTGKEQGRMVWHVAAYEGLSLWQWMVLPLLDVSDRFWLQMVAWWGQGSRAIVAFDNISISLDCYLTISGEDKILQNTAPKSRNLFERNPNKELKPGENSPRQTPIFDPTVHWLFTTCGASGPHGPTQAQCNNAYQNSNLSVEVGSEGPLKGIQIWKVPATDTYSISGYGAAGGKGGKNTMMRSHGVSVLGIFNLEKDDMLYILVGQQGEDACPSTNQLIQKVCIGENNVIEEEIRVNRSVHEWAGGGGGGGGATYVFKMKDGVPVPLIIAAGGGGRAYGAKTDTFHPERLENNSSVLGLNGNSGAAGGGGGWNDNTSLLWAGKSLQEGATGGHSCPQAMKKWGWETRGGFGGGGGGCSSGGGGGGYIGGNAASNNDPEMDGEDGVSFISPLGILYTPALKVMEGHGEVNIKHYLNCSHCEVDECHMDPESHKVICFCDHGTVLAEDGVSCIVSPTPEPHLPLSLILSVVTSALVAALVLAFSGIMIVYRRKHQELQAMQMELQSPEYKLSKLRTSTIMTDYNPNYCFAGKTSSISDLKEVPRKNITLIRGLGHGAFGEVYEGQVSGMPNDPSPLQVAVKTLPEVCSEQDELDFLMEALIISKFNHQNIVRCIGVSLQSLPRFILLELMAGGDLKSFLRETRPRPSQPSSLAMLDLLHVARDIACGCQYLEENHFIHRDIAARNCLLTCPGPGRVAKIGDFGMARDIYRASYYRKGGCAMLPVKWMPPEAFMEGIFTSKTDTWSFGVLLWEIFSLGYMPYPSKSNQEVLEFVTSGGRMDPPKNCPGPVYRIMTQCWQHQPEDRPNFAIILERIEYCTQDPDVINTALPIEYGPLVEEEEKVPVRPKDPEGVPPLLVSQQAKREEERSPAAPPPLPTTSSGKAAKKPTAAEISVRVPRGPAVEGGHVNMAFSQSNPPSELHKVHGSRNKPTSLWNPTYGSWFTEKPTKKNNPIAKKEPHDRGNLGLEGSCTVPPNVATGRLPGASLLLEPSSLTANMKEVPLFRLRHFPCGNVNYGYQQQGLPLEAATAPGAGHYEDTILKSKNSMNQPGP

Structure (SMILES)	residual activity [1] [%]	residual activity [2] [%]	residual activity [3] [%]	residual activity [4] [%]	residual activity [5] [%]	residual activity [6] [%]	residual activity [7] [%]	residual activity [8] [%]	residual activity [9] [%]	residual activity [10] [%]	residual activity [11] [%]	residual activity [12] [%]	residual activity [13] [%]	residual activity [14] [%]	residual activity [15] [%]	residual activity [16] [%]	residual activity [17] [%]	residual activity [18] [%]	residual activity [19] [%]	residual activity [20] [%]	also measured
CS(=O)(=O)NCC[C@H](NC(=O)c1cncc2c1cnn2-c1ccc(F)cc1)c1ccnc(S(C)(=O)=O)c1 [BI 9307]	100	97	99	100	100	100	85	100	100	97	100	100	100	92	100	100	99	100	45	100	residual activity [21]: 100%; residual activity [22]: 100%; residual activity [23]: 100%; residual activity [24]: 99%; residual activity [25]: 78%; residual activity [26]: 76%; residual activity [27]: 100%; residual activity [28]: 100%; residual activity [29]: 100%; residual activity [30]: 99%; residual activity [31]: 100%; residual activity [32]: 85%; residual activity [33]: 96%; residual activity [34]: 100%; residual activity [35]: 100%; residual activity [36]: 78%; inhibition [37]: -9.49%
CS(=O)(=O)c1cc(C2(NC(=O)c3cncc4c3cnn4-c3ccc(F)cc3)CC2)ccn1 [BI 639667]	100	100	74	90	91	89	100	84	100	100	100	100	100	80	100	100	83	85	45	100	residual activity [21]: 61%; residual activity [22]: 56%; residual activity [23]: 90%; residual activity [24]: 99%; residual activity [25]: 74%; residual activity [26]: 100%; residual activity [27]: 81%; residual activity [28]: 99%; residual activity [29]: 64%; residual activity [30]: 93%; residual activity [31]: 94%; residual activity [32]: 97%; residual activity [33]: 100%; residual activity [34]: 86%; residual activity [35]: 100%; residual activity [36]: 100%; inhibition [37]: -7.67%
